Measured values published in US11484539B2, “Compounds and their uses for alleviating menopause-associated symptoms” (Estetra SPRL, priority 2018, dated 2022).
Marks after values point to notes of the source that are not given here.

Experiments:
Type in all cases: in vivo
[1] = system: post-menopausal women; assay: Genito-urinary symptoms (GSM), VVA subject self-assessment
Protocol: Change from baseline to week 12 in the following GSM symptoms (VVA subject self-assessment) were recorded: • a) Vaginal dryness (sensation of dryness or burning in the vagina; none=0 mild=1, moderate=2 or severe=3):
• b) Vaginal and/or vulvar irritation/itching (sensation of abnormal irritation or sensitive condition in the vagina; none=0, mild=1, moderate=2 or severe=3):
• c) Dysuria (sensation of pain or difficulty in urinating; none=0, mild=1, moderate=2 or severe=3):
• d) Vaginal pain associated with sexual activity (sensation of pain with sexual intercourse none=0, mild=1, moderate=2 or severe=3):
• e) Vaginal bleeding associated with sexual activity (loss of blood with sexual intercourse; presence=1 vs. absence=0): […]

[2] = system: post-menopausal women; assay: Number of patients with biopsies (endometrial biopsy)
Protocol: If during the course of the trial, a double layer endometrial thickness ≥15 mm was detected on TVUS and/or abnormal uterine bleeding (in the judgement of the gynecologist in light of the oestrogen therapy) was reported by a non-hysterectomised person, they underwent an endometrial biopsy and was treated with progestin (10 mg dydrogesterone) QD until end of Week 11 in a sequential way (i.e., a 14 day progestin treatment period followed by a 14 day progestin treatment pause) in addition to the E4/placebo treatment. […] If an abnormal uterine bleeding occurred again after a first normal endometrial biopsy, a thorough gynaecological examination and a TVUS were performed. If necessary in the judgment of the gynecologist, a second endometrial biopsy was performed. After the E4/Placebo treatment period, all non-hysterectomised subjects (including those having received the progestin previously) received progestin therapy for 14 days with 10 mg dydrogesterone QD.
1. Number of patients with biopsies

[3] = system: post-menopausal women; assay: Adverse Events (AEs, TEAEs)
Excerpt: This is confirmed by the following statistical analysis. Using a Poisson regression model with a random effect for the patient and treatment group as a covariate to model the count of TEAEs in the different treatment groups, it can be shown that there is no statistical difference between the treatment groups (p value of 0.099). Second, a chi-square test was used to assess if the prevalence of patients reporting TEAEs in each treatment group was similar. No statistical difference was found between the treatment groups (p value of 0.575).

[4] = system: post-menopausal women; assay: Patients leaving the study
Excerpt: 3. Patients leaving the study

## C[C@]12CC[C@@H]3c4ccc(O)cc4CC[C@H]3[C@@H]1[C@@H](O)[C@@H](O)[C@@H]2O [E4, 1,3,5 (10)-estratrien-3,15alpha,16alpha,17beta-tetrol]
[1]; 2.5 mg, Baseline
  Dysuria score (none=0, mild=1, moderate=2, severe=3), mean ± SD: 0.2 ± 0.56
  Vaginal and/or vulvar irritation/itching score (none=0, mild=1, moderate=2, severe=3), mean ± SD: 0.7 ± 0.96
  Vaginal bleeding associated with sexual activity, Absence (%): 100%
  Vaginal bleeding associated with sexual activity, Presence (%): 0%
  Vaginal dryness score (none=0, mild=1, moderate=2, severe=3), mean ± SD: 1 ± 0.90
  Vaginal pain associated with sexual activity score (none=0, mild=1, moderate=2, severe=3), mean ± SD: 0.6 ± 0.77
[1]; 2.5 mg, Week 12
  Dysuria score (none=0, mild=1, moderate=2, severe=3), mean ± SD: 0 ± 0.19
  Vaginal and/or vulvar irritation/itching score (none=0, mild=1, moderate=2, severe=3), mean ± SD: 0.3 ± 0.60
  Vaginal bleeding associated with sexual activity, Absence (%): 100%
  Vaginal bleeding associated with sexual activity, Presence (%): 0%
  Vaginal dryness score (none=0, mild=1, moderate=2, severe=3), mean ± SD: 0.5 ± 0.77
  Vaginal pain associated with sexual activity score (none=0, mild=1, moderate=2, severe=3), mean ± SD: 0.3 ± 0.73
[1]; 5 mg, Baseline
  Dysuria score (none=0, mild=1, moderate=2, severe=3), mean ± SD: 0.2 ± 0.56
  Vaginal and/or vulvar irritation/itching score (none=0, mild=1, moderate=2, severe=3), mean ± SD: 0.6 ± 0.90
  Vaginal bleeding associated with sexual activity, Presence (%): 6.4%
  Vaginal dryness score (none=0, mild=1, moderate=2, severe=3), mean ± SD: 1.3 ± 0.94
  Vaginal pain associated with sexual activity score (none=0, mild=1, moderate=2, severe=3), mean ± SD: 1 ± 1.07
[1]; 5 mg, Baseline, some patients had no sexual activity
  Vaginal bleeding associated with sexual activity, Absence (%): 91.5^# %
[1]; 5 mg, Week 12
  Dysuria score (none=0, mild=1, moderate=2, severe=3), mean ± SD: 0 ± 0.20
  Vaginal and/or vulvar irritation/itching score (none=0, mild=1, moderate=2, severe=3), mean ± SD: 0.4 ± 0.65
  Vaginal bleeding associated with sexual activity, Absence (%): 100%
  Vaginal bleeding associated with sexual activity, Presence (%): 0%
  Vaginal dryness score (none=0, mild=1, moderate=2, severe=3), mean ± SD: 0.7 ± 0.86
  Vaginal pain associated with sexual activity score (none=0, mild=1, moderate=2, severe=3), mean ± SD: 0.5 ± 0.78
[1]; 10 mg, Baseline
  Dysuria score (none=0, mild=1, moderate=2, severe=3), mean ± SD: 0.2 ± 0.58
  Vaginal and/or vulvar irritation/itching score (none=0, mild=1, moderate=2, severe=3), mean ± SD: 0.7 ± 0.87
  Vaginal bleeding associated with sexual activity, Absence (%): 100%
  Vaginal bleeding associated with sexual activity, Presence (%): 0%
  Vaginal dryness score (none=0, mild=1, moderate=2, severe=3), mean ± SD: 1 ± 0.93
  Vaginal pain associated with sexual activity score (none=0, mild=1, moderate=2, severe=3), mean ± SD: 0.6 ± 0.77
[1]; 10 mg, Week 12
  Dysuria score (none=0, mild=1, moderate=2, severe=3), mean ± SD: 0.1 ± 0.23
  Vaginal and/or vulvar irritation/itching score (none=0, mild=1, moderate=2, severe=3), mean ± SD: 0.3 ± 0.64
  Vaginal bleeding associated with sexual activity, Absence (%): 100%
  Vaginal bleeding associated with sexual activity, Presence (%): 0%
  Vaginal dryness score (none=0, mild=1, moderate=2, severe=3), mean ± SD: 0.5 ± 0.75
  Vaginal pain associated with sexual activity score (none=0, mild=1, moderate=2, severe=3), mean ± SD: 0.2 ± 0.36
[1]; 15 mg, Baseline
  Dysuria score (none=0, mild=1, moderate=2, severe=3), mean ± SD: 0.3 ± 0.58
  Vaginal and/or vulvar irritation/itching score (none=0, mild=1, moderate=2, severe=3), mean ± SD: 0.5 ± 0.85
  Vaginal bleeding associated with sexual activity, Presence (%): 0%
  Vaginal dryness score (none=0, mild=1, moderate=2, severe=3), mean ± SD: 1.1 ± 1.04
  Vaginal pain associated with sexual activity score (none=0, mild=1, moderate=2, severe=3), mean ± SD: 0.7 ± 0.90
[1]; 15 mg, Baseline, some patients had no sexual activity
  Vaginal bleeding associated with sexual activity, Absence (%): 97.9^# %
[1]; 15 mg, Week 12
  Dysuria score (none=0, mild=1, moderate=2, severe=3), mean ± SD: 0.3 ± 0.61
  Vaginal and/or vulvar irritation/itching score (none=0, mild=1, moderate=2, severe=3), mean ± SD: 0.4 ± 0.70
  Vaginal bleeding associated with sexual activity, Absence (%): 95.8%
  Vaginal bleeding associated with sexual activity, Presence (%): 4.2%
  Vaginal dryness score (none=0, mild=1, moderate=2, severe=3), mean ± SD: 0.5 ± 0.68
  Vaginal pain associated with sexual activity score (none=0, mild=1, moderate=2, severe=3), mean ± SD: 0.3 ± 0.54
[2]; 2.5 mg
  Number of patients with biopsies: 4
[2]; 5 mg
  Number of patients with biopsies: 5
[2]; 10 mg
  Number of patients with biopsies: 11
[2]; 15 mg
  Number of patients with biopsies: 9
[2]; 15 mg per day group
  Requirements for biopsies compared with the 10 mg per day group: less requirements for biopsies
[3]; 2.5 mg
  Count of Treatment Emergent AEs (TEAEs): 61
  Percentage of patients with TEAE leading to Study Discontinuation: 1.9%
  Percentage of patients with severe TEAE: 7.7%
[3]; 5 mg
  Count of Treatment Emergent AEs (TEAEs): 63
  Percentage of patients with TEAE leading to Study Discontinuation: 6.4%
  Percentage of patients with severe TEAE: 10.6%
[3]; 10 mg
  Count of Treatment Emergent AEs (TEAEs): 95
  Percentage of patients with TEAE leading to Study Discontinuation: 5.6%
  Percentage of patients with severe TEAE: 7.4%
[3]; 10 mg group
  Average AEs per patient, in patients who had AEs: 3.2
[3]; 15 mg
  Count of Treatment Emergent AEs (TEAEs): 82
  Percentage of patients with TEAE leading to Study Discontinuation: 4.1%
  Percentage of patients with severe TEAE: 6.1%
[3]; 15 mg group
  Average AEs per patient, in patients who had AEs: 2.6
  TEAEs compared with the 10 mg group: less TEAEs than patients in the 10 mg group
[4]; 2.5 mg
  Number of patients leaving the study: 9
[4]; 5 mg
  Number of patients leaving the study: 11
[4]; 10 mg
  Number of patients leaving the study: 15
[4]; 15 mg
  Number of patients leaving the study: 8
